Where two headings read alike, the source gives them in different places.
Key:
[1] = Accelerated storage test of aldehyde mixture with additive, 40 ppm Cu (Example 1); format: physicochemical
Experimental: To a mixture of aldehydes containing; (Z)-9-hexadecenal, (Z)-11-hexadecenal, hexadecanal, (Z)-11-hexadecen-1-ol, (Z)-11-hexadecenoic acid and 40 ppm Cu was added an additive as indicated in table 1 below. The mixture was thoroughly mixed and heated without cap in an oven at 55° C. for 14 days as an accelerated storage test.

[2] = Accelerated storage test of aldehyde mixture with additive, 10 ppm Cu (Example 2)
Experimental: The term “accelerated storage test” as used herein refers to a well known protocol for investigating the stability of a particular composition. The protocol is described in for example the memorandum dated 16 Nov. 2012 from The United States Environmental Protection Agency Washington, D.C. 20460 with the subject title “Accelerated Storage Stability and Corrosion Characteristics Study Protocol”. The protocol evaluates product stability at 54° C.±2° C. for 14 days.

[3] = Storage test of aldehyde mixture containing 4-hydroxy-TEMPO with additive (Example 4); format: physicochemical; conditions: for Heptane / Z11-16:OH / 16:Acid / OH tempo / Z9-16:Ald / 15-1:Ald / 16:Ald / Z11-16:Ald: after 55° C. 14 days without cap; for Heptane: before test 0.04, without additive 0.04; for Z11-16:OH: before test 0.27, without additive 0.06; for 16:Acid: before test 1.05, without additive 6.14; for OH tempo: before test 1.19, without additive 1.11; for Z9-16:Ald: before test 5.09, without additive 3.71; for 15-1:Ald: before test 7.27, without additive 5.83; for 16:Ald: before test 8.41, without additive 6.64; for Z11-16:Ald: before test 75.31, without additive 57.21, in % (unit assumed)
Experimental: To a mixture of aldehydes containing; 4-hydroxy-TEMPO (4-hydroxy-2,2,6,6-tetramethylpiperidin-1-oxyl), (Z)-10-pentenenal, (Z)-9-hexadecenal, (Z)-11-hexadecenal, hexadecanal, (Z)-11-hexadecen-1-ol and (Z)-11-hexadecenoic acid in the composition listed in table 4 below was added up to 1% of an additive in table below. The mixture was thoroughly mixed and heated without cap in an oven at 55° C. for 14 days.

[4] = Storage test of aldehyde mixture containing 4-hydroxy-TEMPO and 10 ppm Copper with additive (Example 3); conditions: 10 ppm Copper; for Z11-16:OH / Z10-15:Ald / 16:Acid / Z9-16:Ald / 16:Ald / Z11-16:Ald: after 55 C 14 days without cap; for Z11-16:OH: before test 2.16, blank 1.44; for Z10-15:Ald: before test 2.61, blank 2.72; for 16:Acid: before test 3.01, blank 7.94; for Z9-16:Ald: before test 5.33, blank 3.91; for 16:Ald: before test 8.16, blank 6.48; for Z11-16:Ald: before test 74.98, blank 58.18
Experimental: To a mixture of aldehydes containing; 4-hydroxy-TEMPO (4-hydroxy-2,2,6,6-tetramethylpiperidin-1-oxyl), (Z)-10-pentenenal, (Z)-9-hexadecenal, (Z)-11-hexadecenal, hexadecanal, (Z)-11-hexadecen-1-ol (Z)-11-hexadecenoic acid and 10 ppm Copper in the composition listed in table 3 below was added up to 1% of an additive in table below. The mixture was thoroughly mixed and heated without cap in an oven at 55 C for 14 days.

| Structure (SMILES) | Heptane [3] | Z11-16:OH [3] | 16:Acid [3] | OH tempo [3] | Z9-16:Ald [3] | 15-1:Ald [3] | 16:Ald [3] | Z11-16:Ald [3] | Z11-16:OH [4] | Z10-15:Ald [4] | 16:Acid [4] | Z9-16:Ald [4] | 16:Ald [4] | Z11-16:Ald [4] | also measured |
| --- | --- | --- | --- | --- | --- | --- | --- | --- | --- | --- | --- | --- | --- | --- | --- |
| [Na+].[O-][n+]1ccccc1[S-] [Sodium pyrithione] | 0.04 | 0.24 | 1.58 | 1.05 | 5.08 | 6.71 | 8.29 | 74.65 | 2.14 | 2.87 | 3.39 | 5.18 | 8.07 | 74.71 | suppressing degradation ([1]; 55° C. 14 days): particularly efficient at suppressing degradation; Z9-16:Ald ([1]; after 55° C. 14 days without cap, before test 4.3, blank 3.066023): 3.083; C16:Acid ([1]; after 55° C. 14 days without cap, before test 6.7, blank 18.84135): 8.924; 16:Ald ([1]; after 55° C. 14 days without cap, before test 7.5, blank 6.659339): 6.675; Z11-16Ald ([1]; after 55° C. 14 days without cap, before test 69.4, blank 54.83784, in % (unit assumed)): 57.02; suppressing degradation ([2]; 55° C. 14 days): highly efficient at suppressing degradation; C16:Acid ([2]; after 55° C. 14 days without cap, before test 1.05, blank 17.72): 3.34; Z9-16:Ald ([2]; after 55° C. 14 days without cap, before test 5.09, blank 3.05): 4.20; 16:Ald ([2]; after 55° C. 14 days without cap, before test 8.41, blank 6.60): 8.73; Z11-16Ald ([2]; after 55° C. 14 days without cap, before test 75.31, blank 54.31): 76.47; suppressing acid formation and/or degradation of the aldehydes ([3]; 55° C. 14 days): particularly efficient at suppressing acid formation and/or degradation of the aldehydes; suppressing acid formation and degradation of the aldehydes ([4]; 55 C 14 days): particularly efficient at suppressing acid formation and degradation of the aldehydes |
| SC1=NCCS1 [2-thiazoline-2-thiol] | 0.04 | 0.00 | 1.69 | 0.83 | 4.64 | 6.26 | 8.08 | 68.79 | 2.18 | 2.48 | 2.74 | 5.06 | 8.21 | 75.24 | suppressing acid formation and/or degradation of the aldehydes [3]: particularly efficient at suppressing acid formation and/or degradation of the aldehydes |

Source: US20260256136A1, “STABILIZATION OF ALDEHYDES AND/OR AN ALCOHOLS” (priority 2022, published 2026)
